Assays:
[1] = tested on: intraocular tissue (retinal tissue incl. photoreceptor cell layer, vitreous body) of Zebrafish 7-day-old embryo; test: Staining of intraocular tissue of Zebrafish fry by exposure to staining liquid, ocular tissue section observed by confocal microscope; assay type: in vivo; conditions: Zebrafish 7 dpf fry, 1 μg/mL, 1 hour exposure, fixed ocular section
[2] = Excitation and fluorescence wavelengths by fluorescence spectrometer FL4500; assay type: physicochemical; conditions: in nm (unit assumed)
[3] = tested on: photoreceptor cell layer in tissue section of the Zebrafish eyeball; test: Stained slide of frozen tissue section of Zebrafish eyeball, co-staining with anti-Zpr-1 or anti-Zpr-3 antibody
Excerpt: After an eyeball of a fry of Zebrafish 7-day-old embryo (7 dpf) was immobilized with a PBS solution of 4% paraformaldehyde (PFA), the solution was replaced by a PBS solution of 30% sucrose, and the eyeball was embedded in an OCT compound (product of Tissue-Tek Co.) and frozen with liquid nitrogen. The frozen sample was sliced into a 7-1 μm section by Cryostat (Tissue•Tek Cryo 3, manufactured by Sakura Finetek Japan Co., Ltd.) and extended on a MAS-coated slide glass (product of […] GLASS IND., LTD) to obtain a tissue section slide of the Zebrafish eyeball. The slide glass was treated with a blocking solution (Blocking One, product of Nakarai Co.) for 30 minutes at room temperature, and an anti-Zpr-1 antibody (which stains red and green cone cells) diluted with PBS was mounted as a primary antibody on the slide glass and treated for 12 hours at 4° C. The slide glass was then washed 3 times with PBST for 10 minutes, and a secondary antibody (Alexa 488-anti-mouse IgG antibody) and 1 μg/mL of Compound 5 were diluted with PBS and mounted on the slide glass for 1 hour at room temperature. The slide glass was washed 3 times with PBST for 10 minutes, Fluoromount G (product of Southem Biotechnology Co.) was mounted thereon, and a cover glass was placed thereon. The thus-obtained stained slide of the tissue section of the Zebrafish eye ball was observed through a confocal microscope.
A stained slide of a tissue section of a Zebrafish eye ball was prepared according to the same process as in Example 120 except that the primary antibody used in Example 120 was changed to an anti-Zpr-3 antibody (which stains rod cells), and observed through a confocal microscope.

[4] = tested on: fundus (retina) of Zebrafish fry; test: In vivo intraocular observation of the fundus of living Zebrafish fry by confocal microscope; conditions: 1 μg/mL, 1 hour exposure;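 further: +++ photoreceptor and inner retinal layers stained ++ mainly photoreceptor layer − none seen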
Procedure: In an arbitrary well of a 24-well multiplate, were put 1 mL of Staining Liquid 2 and a fry of Zebrafish, and the plate was left to stand for 1 hour. A process of removing Staining Liquid 2 in the well and replacing it by 1 mL of distilled water was then performed 3 times.
The fry was then put in a 0.7% agarose solution and placed on a slide glass to observe the fundus of the fry through a confocal microscope.

retina of B10 mouse = test: Staining of mouse intraocular tissue after administration to the abdominal cavity; assay type: in vivo; conditions: 3-month-old B10 mouse, 0.2 mL of 10 mg/mL supernatant to abdominal cavity, eyeball taken after 1 hour
Procedure: Staining compound 81 was added to an equimolar amount of a NaOH solution so as to give a concentration of 10 mg/mL, and the resultant mixture was centrifuged for 5 minutes at 14 krpm to obtain a supernatant. To an abdominal cavity of a 3-month-old B10 mouse, was administered 0.2 mL of this supernatant at one time. After 1 hour, the thus-treated animal was sacrificed under anesthesia by diethyl ether, and an eyeball thereof was taken out. The eyeball taken was embedded in an OCT compound and frozen in isopentane chilled with liquid nitrogen. This eyeball was sliced into a thickness of about 5 μm in a cryostat chilled to −20° C., and this slice was placed on a slide glass and dried to prepare a section of an ocular tissue. The thus-prepared ocular tissue section was observed through a confocal microscope (Pascal Exciter, manufactured by Zeiss Co.).

[5] = aqueous solution: 10 mg/mL DMSO solution diluted to 1/500 with purified water (Examples 1 to 94)
[6] = values in a chloroform solution (Examples 95 to 106)
[7] = Comparative Examples, solvent not stated

λem (fluorescence wavelength) [2, 5] | λex (excitation wavelength) [2, 5] | SMILES | Staining ability [1] | Result of observation (staining ability, in vivo fundus) [4] | other results
577 | 556 | CCN(CC)c1ccc2cc3c(oc2c1)c(C#N)c(=N)n1c2ccccc2nc31 [Compound 5] | +++ | +++ | Overlap of stained images with anti-Zpr-1 antibody (red and green cone cells) in the photoreceptor cell layer ([3]; Example 120, 1 μg/mL on frozen section): did not overlap; Overlap of stained images with anti-Zpr-3 antibody (rod cells) in the photoreceptor cell layer ([3]; Example 121, 1 μg/mL on frozen section): partially overlapped; Selectivity of staining within the photoreceptor cell layer ([3]; Examples 120 and 121): selectively stains a part of the cell types in the photoreceptor cell layer or of the cell bodies existing in the photoreceptor cell layer; Staining of photoreceptor cell layer and of red and green cone cells ([3]; conclusion from Example 120): has staining ability to the photoreceptor cell layer but does not stain the red and green cone cells in the photoreceptor cell layer; Cell types stained in the photoreceptor cell layer ([3]; conclusion from Example 121): has stained the rod cells and at least one kind of cell type of blue or ultraviolet cone cells
576 | 555 | CCN(CC)c1ccc2cc3c(oc2c1)c(C#N)c(=O)n1c2ccccc2nc31 [Compound 6] | ++ | ++ | 
555 | 469 | CCN(CC)c1ccc2cc(-c3nc4ccccc4s3)c(=O)oc2c1 [Compound 7] | ++ | +++ | 
592 | 477 | CC1(C)CCN2CCC(C)(C)c3c2c1cc1cc(-c2nc4ccccc4s2)c(=O)oc31 [Compound 8] | ++ | +++ | 
514 | 464 | CCN(CC)c1ccc2cc(-c3nc4ccccc4[nH]3)c(=O)oc2c1 [Compound 9] | ++ | ++ | 
476 | 422 | CCN(CC)c1ccc2cc(-c3nc4cc(Cl)ccc4o3)c(=O)oc2c1 [Compound 11] | +++ | +++ | 
509 | 463 | CCCN(CCC)c1ccc2cc(-c3nc4ccccc4[nH]3)c(=O)oc2c1 [Compound 12] | ++ | ++ | 
504 | 472 | CCN(CC)c1ccc2cc(-c3nc4ccc(C)cc4o3)c(=O)oc2c1 [Compound 13] | +++ | +++ | 
661 | 566 | COc1ccc2cc(N3c4ccc(/C=C5\SC(=S)N(CC(=O)O)C5=O)cc4[C@@H]4CCC[C@@H]43)ccc2c1 [Compound 36] | +++ | ++ | 
619 | 541 | O=C(O)CCN1C(=O)/C(=C\c2ccc3c(c2)C2CCCC2N3c2ccccc2)SC1=S (stereo not drawn) [Compound 48] | ++ | ++ | 
636 | 527 | CSc1ccc(N2c3ccc(/C=C4/SC(=S)N(CC(=O)O)C4=O)cc3C3CCCC32)cc1 (stereo not drawn) [Compound 66] | +++ | ++ | 
604 | 576 | CCN1c2ccc(/C=C3/SC(=S)N(CCC(=O)O)C3=O)cc2C2CCCC21 (stereo not drawn) [Compound 81] | ++ | +++ | Staining ability to the retina (retina of B10 mouse): has staining ability to the retina
 |  | CCOc1ccc(Nc2ccc3c4c(cc(=O)n3C)-c3ccccc3C(=O)c24)cc1 [Compound 117] | ∘ |  | λem (fluorescence wavelength) [2, 6]: 581; λex (excitation wavelength) [2, 6]: 538
 |  | CCCCc1ccc(Nc2ccc3c4c(cc(=O)n3C)-c3ccccc3C(=O)c24)cc1 [Compound 118] | ∘ |  | λem (fluorescence wavelength) [2, 6]: 634; λex (excitation wavelength) [2, 6]: 540
 |  | Cc1ccc(Nc2ccc3c4c(cc(=O)n3C)-c3ccccc3C(=O)c24)c(C)c1 [Compound 120] | ∘ |  | λem (fluorescence wavelength) [2, 6]: 609; λex (excitation wavelength) [2, 6]: 537
 |  | Cc1ccc(C)c(Nc2ccc3c4c(cc(=O)n3C)-c3ccccc3C(=O)c24)c1 [Compound 121] | ∘ |  | λem (fluorescence wavelength) [2, 6]: 609; λex (excitation wavelength) [2, 6]: 537
 |  | Cc1cccc(C)c1Nc1ccc2c3c(cc(=O)n2C)-c2ccccc2C(=O)c13 [Compound 122] | ∘ |  | λem (fluorescence wavelength) [2, 6]: 582; λex (excitation wavelength) [2, 6]: 534
 |  | O=C1OC2(c3ccc(O)cc3Oc3cc(O)ccc32)c2ccccc21 [Fluorescein, fluorescein, reference compound] | − | − | 
 |  | CC1(C)C(/C=C/C=C/C=C/C=C2\N(CCCCS(=O)(=O)O)c3ccc4ccccc4c3C2(C)C)=[N+](CCCCS(=O)(=O)[O-])c2ccc3ccccc3c21 [ICG, indocyanine green, reference compound] | − | − | λem (fluorescence wavelength) [2, 7]: 811; λex (excitation wavelength) [2, 7]: 784
